In ChEMBL document CHEMBL1201862, “PubChem BioAssay data set” (2004):
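Five concentrations, 48 hours, 96-well plates. GI50 marks 50% less growth.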 Calls of active or inactive are those of the source. No stated cut-off is given here; in the data, active = GI50 up to about 1.1 µM and inactive = higher.

How the values were obtained:
Test in all cases: growth of human tumour cells (NCI), 48 h
KM12 = system: KM12
OVCAR-3 = system: OVCAR-3
OVCAR-5 = system: OVCAR-5
SW-620 = system: SW-620
NCI-H226 = system: NCI-H226
NCI-H522 = system: NCI-H522
M14 = system: M14
NCI-H460 = system: NCI-H460
SK-MEL-5 = system: SK-MEL-5
SK-MEL-28 = system: SK-MEL-28
RXF 393 = system: RXF 393
OVCAR-8 = system: OVCAR-8
EKVX = system: EKVX
ACHN = system: ACHN
CAKI-1 = system: CAKI-1
SF-268 = system: SF-268
HOP-62 = system: HOP-62
HCT-116 = system: HCT-116
MDA-MB-231 = system: MDA-MB-231

| SMILES | GI50 (KM12) | GI50 (OVCAR-3) | GI50 (OVCAR-5) | GI50 (SW-620) | GI50 (NCI-H226) | GI50 (NCI-H522) | GI50 (M14) | GI50 (NCI-H460) | GI50 (SK-MEL-5) | GI50 (SK-MEL-28) | GI50 (RXF 393) | GI50 (OVCAR-8) | GI50 (EKVX) | GI50 (ACHN) | GI50 (CAKI-1) | GI50 (SF-268) | GI50 (HOP-62) | GI50 (HCT-116) | GI50 (MDA-MB-231) |
| --- | --- | --- | --- | --- | --- | --- | --- | --- | --- | --- | --- | --- | --- | --- | --- | --- | --- | --- | --- |
| O=C(O)CCCNS(=O)(=O)c1ccccc1 | > 100 µM (inactive) | > 100 µM (inactive) | > 100 µM (inactive) | > 100 µM (inactive) | > 100 µM (inactive) | > 100 µM (inactive) | > 100 µM (inactive) | > 100 µM (inactive) | > 100 µM (inactive) | > 100 µM (inactive) | > 100 µM (inactive) | > 100 µM (inactive) | > 100 µM (inactive) | > 100 µM (inactive) | > 100 µM (inactive) | > 100 µM (inactive) | – | – | – |
| CCOC(=O)C[C@@H](C)[C@]1(C(=O)OC)CCCC1=O | > 100 µM (inactive) | > 100 µM (inactive) | > 100 µM (inactive) | > 100 µM (inactive) | > 100 µM (inactive) | > 100 µM (inactive) | > 100 µM (inactive) | > 67 µM (inactive) | > 100 µM (inactive) | > 100 µM (inactive) | > 100 µM (inactive) | > 100 µM (inactive) | > 100 µM (inactive) | > 100 µM (inactive) | > 100 µM (inactive) | > 90.8 µM (inactive) | > 100 µM (inactive) | > 41.1 µM (inactive) | – |
| CC(C)C(=S)N(C)O | 17.7 µM (inactive) | 2.82 µM (inactive) | > 65.5 µM (inactive) | 1.52 µM (inactive) | 44 µM (inactive) | 6.08 µM (inactive) | 21.6 µM (inactive) | 5.69 µM (inactive) | 8.02 µM (inactive) | 37.6 µM (inactive) | 98.9 µM (inactive) | 13.9 µM (inactive) | 23.1 µM (inactive) | 31 µM (inactive) | 19.9 µM (inactive) | 27.6 µM (inactive) | 24.5 µM (inactive) | 2.29 µM (inactive) | – |
| O=C1c2ccccc2C(=O)N1C/C=C/CO | > 100 µM (inactive) | > 100 µM (inactive) | – | > 100 µM (inactive) | > 100 µM (inactive) | 98.2 µM (inactive) | > 100 µM (inactive) | > 100 µM (inactive) | > 100 µM (inactive) | > 100 µM (inactive) | > 100 µM (inactive) | > 100 µM (inactive) | – | > 100 µM (inactive) | > 100 µM (inactive) | > 100 µM (inactive) | > 100 µM (inactive) | > 100 µM (inactive) | – |
| CC1=C(c2ccccc2)CON(c2ccccc2)C1 | 22.7 µM (inactive) | 85.7 µM (inactive) | 32.9 µM (inactive) | 39.4 µM (inactive) | 85.7 µM (inactive) | 15.2 µM (inactive) | 33.4 µM (inactive) | 35 µM (inactive) | 20.5 µM (inactive) | 31 µM (inactive) | 16.9 µM (inactive) | 33.5 µM (inactive) | 46.6 µM (inactive) | 30.2 µM (inactive) | 39.6 µM (inactive) | 39.9 µM (inactive) | 66.2 µM (inactive) | 24.7 µM (inactive) | – |
| CC(=O)OC1COC(Nc2ccc(C(C)=O)cc2)C(OC(C)=O)C1OC(C)=O (stereo not given) | > 100 µM (inactive) | > 100 µM (inactive) | – | > 100 µM (inactive) | > 100 µM (inactive) | > 100 µM (inactive) | > 100 µM (inactive) | > 100 µM (inactive) | > 100 µM (inactive) | > 100 µM (inactive) | > 100 µM (inactive) | > 100 µM (inactive) | > 100 µM (inactive) | > 100 µM (inactive) | > 100 µM (inactive) | > 100 µM (inactive) | > 100 µM (inactive) | – | – |
| CCOC(=O)C1=C(OC(OCC)C(CC)[Se]c2ccccc2)CCCC1 (stereo not given) | > 100 µM (inactive) | 21.1 µM (inactive) | 26.3 µM (inactive) | – | 21.8 µM (inactive) | 14.6 µM (inactive) | 15.6 µM (inactive) | 36.4 µM (inactive) | 12.6 µM (inactive) | 40.5 µM (inactive) | 20.5 µM (inactive) | 19.1 µM (inactive) | 34.4 µM (inactive) | 28.1 µM (inactive) | 37.3 µM (inactive) | 19 µM (inactive) | 54.2 µM (inactive) | 17.5 µM (inactive) | – |
| CN(C)CCCNC(=O)c1cc(NC(=O)c2cc(NC(=O)[C@H]3C[C@@H]3C(=O)Nc3cc(C(=O)Nc4cc(C(=O)NCCCN(C)C)n(C)c4)n(C)c3)cn2C)cn1C | > 100 µM (inactive) | – | > 100 µM (inactive) | > 100 µM (inactive) | > 100 µM (inactive) | 65 µM (inactive) | > 100 µM (inactive) | > 100 µM (inactive) | > 100 µM (inactive) | – | – | > 100 µM (inactive) | > 100 µM (inactive) | > 100 µM (inactive) | > 100 µM (inactive) | > 100 µM (inactive) | > 100 µM (inactive) | > 100 µM (inactive) | > 100 µM (inactive) |
| O=C1c2ccccc2C2C1N2C(=O)C(F)(F)F (stereo not given) | > 100 µM (inactive) | > 100 µM (inactive) | > 100 µM (inactive) | > 100 µM (inactive) | > 100 µM (inactive) | > 100 µM (inactive) | > 100 µM (inactive) | > 100 µM (inactive) | > 100 µM (inactive) | > 100 µM (inactive) | > 100 µM (inactive) | > 100 µM (inactive) | > 100 µM (inactive) | > 100 µM (inactive) | > 100 µM (inactive) | > 100 µM (inactive) | > 100 µM (inactive) | > 100 µM (inactive) | – |
| C=C(C=O)CCCC(C)[C@@H]1CCC23CC12CCC1[C@@]2(C)CCC(OC(C)=O)C(C)(C)C2CC(OC2OC(COC(C)=O)C(O)C(O)C2O)[C@]13C (stereo not given in full) | 3.39 µM (inactive) | 2.72 µM (inactive) | 5.98 µM (inactive) | 0.798 µM (active) | 6.43 µM (inactive) | 0.843 µM (active) | 1.47 µM (inactive) | 7.69 µM (inactive) | 5.58 µM (inactive) | 0.845 µM (active) | 5.6 µM (inactive) | 4.38 µM (inactive) | 7.33 µM (inactive) | 4.51 µM (inactive) | 5.25 µM (inactive) | 5.43 µM (inactive) | 7.87 µM (inactive) | 0.809 µM (active) | – |
| COc1cc(/C=C2\[C@H]3c4c(c(OC)c(C)c(OC)c4OC)CC(C(=O)N2Cc2ccccc2)N3C)c(OC)c(C)c1OC | 36 µM (inactive) | 16.7 µM (inactive) | 20.6 µM (inactive) | 22.2 µM (inactive) | 10.4 µM (inactive) | 13.1 µM (inactive) | 18.1 µM (inactive) | 16.6 µM (inactive) | 19 µM (inactive) | 25.4 µM (inactive) | > 100 µM (inactive) | 38.5 µM (inactive) | 26.1 µM (inactive) | 26.1 µM (inactive) | 30.3 µM (inactive) | 27.2 µM (inactive) | 19.5 µM (inactive) | > 100 µM (inactive) | – |
| CCCCCCCC[N+](C)(C)Cc1ccc(C[N+](C)(C)CCCCCCCC)cc1 | 11.7 µM (inactive) | 29.6 µM (inactive) | > 100 µM (inactive) | 91.2 µM (inactive) | 34.5 µM (inactive) | 5.58 µM (inactive) | 85.9 µM (inactive) | 28.6 µM (inactive) | 36.7 µM (inactive) | > 100 µM (inactive) | 78.7 µM (inactive) | 15.6 µM (inactive) | > 100 µM (inactive) | > 100 µM (inactive) | 45.4 µM (inactive) | > 100 µM (inactive) | 4.11 µM (inactive) | > 100 µM (inactive) | – |
| COc1ccc2c3c([nH]c2c1[N+](=O)[O-])C(C)N(Cc1ccc([N+](=O)[O-])cc1)CC3 (stereo not given) | 14.2 µM (inactive) | 14 µM (inactive) | 31.6 µM (inactive) | 15.1 µM (inactive) | 18.1 µM (inactive) | 3.96 µM (inactive) | 8.43 µM (inactive) | 11.8 µM (inactive) | – | 11.9 µM (inactive) | 10.9 µM (inactive) | 16.2 µM (inactive) | 37.6 µM (inactive) | 18.1 µM (inactive) | 3.89 µM (inactive) | 2.48 µM (inactive) | > 10 µM (inactive) | – | – |
| CCOC(OC1=CCCC1)C(C)[Se]c1ccccc1 (stereo not given) | 43.8 µM (inactive) | 34.5 µM (inactive) | 28.9 µM (inactive) | – | 36.1 µM (inactive) | 17.9 µM (inactive) | 36.4 µM (inactive) | 19.6 µM (inactive) | 18.3 µM (inactive) | 42.1 µM (inactive) | 32.9 µM (inactive) | 39.5 µM (inactive) | 34.2 µM (inactive) | 61.8 µM (inactive) | 65.8 µM (inactive) | 17.6 µM (inactive) | > 100 µM (inactive) | 20.9 µM (inactive) | – |
| CC(=O)O/N=C/c1ncccc1OC(C)=O | > 100 µM (inactive) | > 100 µM (inactive) | > 100 µM (inactive) | > 100 µM (inactive) | > 100 µM (inactive) | > 100 µM (inactive) | > 100 µM (inactive) | > 100 µM (inactive) | > 100 µM (inactive) | > 100 µM (inactive) | > 100 µM (inactive) | > 100 µM (inactive) | > 100 µM (inactive) | > 100 µM (inactive) | > 100 µM (inactive) | > 100 µM (inactive) | > 100 µM (inactive) | > 100 µM (inactive) | – |
| Cc1cc2c(=O)cc(-c3ccc(Cl)cc3Cl)oc2c(C(=O)O)c1C | > 100 µM (inactive) | > 100 µM (inactive) | > 100 µM (inactive) | > 100 µM (inactive) | > 100 µM (inactive) | 25.3 µM (inactive) | > 100 µM (inactive) | > 100 µM (inactive) | > 100 µM (inactive) | > 100 µM (inactive) | > 100 µM (inactive) | > 100 µM (inactive) | > 100 µM (inactive) | > 100 µM (inactive) | > 100 µM (inactive) | > 100 µM (inactive) | – | > 100 µM (inactive) | – |
